Reference: patent US20120035187A1 (priority 2009, published 2012)
Like-named read-outs stand apart in the source and are kept apart here.

Assays:
[1] = molecular target: T1, acetylcholine esterase (AchE) (Rattus norvegicus, UniProt P37136); assay: biochemical; format: biochemical; conditions: for action of inhibiting AchE activity (in words): Experiment 14, comparison of NK-4 analogues and NK-150
T1 sequence (P37136 32-614): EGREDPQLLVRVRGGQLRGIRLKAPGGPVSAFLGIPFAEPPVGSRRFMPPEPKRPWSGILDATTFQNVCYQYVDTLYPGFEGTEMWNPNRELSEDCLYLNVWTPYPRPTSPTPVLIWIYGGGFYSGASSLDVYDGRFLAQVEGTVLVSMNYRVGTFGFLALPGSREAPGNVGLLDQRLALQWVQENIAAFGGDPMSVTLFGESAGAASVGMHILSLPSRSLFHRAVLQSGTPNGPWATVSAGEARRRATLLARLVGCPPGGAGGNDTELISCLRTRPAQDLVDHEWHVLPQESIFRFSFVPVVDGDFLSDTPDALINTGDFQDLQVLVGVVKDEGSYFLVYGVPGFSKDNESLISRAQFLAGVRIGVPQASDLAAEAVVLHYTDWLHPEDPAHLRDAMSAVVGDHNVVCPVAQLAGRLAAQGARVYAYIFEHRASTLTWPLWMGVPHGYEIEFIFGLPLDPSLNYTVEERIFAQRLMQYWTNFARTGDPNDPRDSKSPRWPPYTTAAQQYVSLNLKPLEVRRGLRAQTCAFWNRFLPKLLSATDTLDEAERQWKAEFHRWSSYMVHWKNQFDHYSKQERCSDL

[2] = system: ICR mice administered with amyloid β fragment; assay: Novel object recognition test, mouse administered with amyloid β fragment, agents of Example 1; format: in vivo; design: key: (novel − memorized seeking time)/(novel + memorized seeking time); conditions: agent of Example 1, 0.3 ml/head intraperitoneally once a day up to the 8th day
Method: One hundred and thirty ICR mice (commercialized by Charles Liver Laboratories Japan Inc., Kanagawa, Japan) were randomly divided into 13 groups, consisting of 10 mice in each group. Amyloid β fragment, represented by an amino acid sequence of SEQ ID NO: 1, used in Experiment 3 was aged at 37° C. for four days, and administered to the lateral ventricle of each mouse in an amount of 9 nmol/6 μl/mouse (the administration method is referred to “Brain Research”, Vol. 706, pp. 181-193 (1996)). […] The mice (10 heads) in the remaining one group were intraperitoneally administered with a sterilized 10% maltose solution (pyrogen-free) once a day up to the 8th day in an amount of 0.3 ml/mouse (control). On the 8th day after the administration, novel object recognition test (see, Japanese Patent Kokai No. 2008-193941) was performed and the average discrimination index (the ratio of prolonged seeking time for novel object to the total seeking time) as a cognitive function index were shown in Table 26. On the 9th day after the administration, the brain of the mice was anatomically isolated, prepared into tissue samples in conventional manner. Depositions of aggregation of amyloid fragment were observed by staining with Congo red or thioflavin T, and degeneration or defect of hippocampal pyramidal cells concerned with cognitive function. The degeneration or the defect of hippocampal pyramidal cells was evaluated by 4-point grade score, by regarding the condition of the control without administration of amyloid β fragment as “none (O)”, “slight (1)”, “moderate (2)”, and “sever (3)”, and the average scores of 10 mice are shown in Table 20.
An experiment apparatus (a glass box of 30 cm in depth, 45 cm in width, and 30 cm in height) and two kinds of objects to be memorized by mice were provided. On the day before the test, the mice were allowed to seek freely in the experiment apparatus with no seeking object for 10 minutes for acclimation. On the test day, the following test was performed twice at an interval of 60 minutes. In the first trial, the same two objects were placed in the apparatus at its both ends, and the mouse was allowed to seek freely for 10 minutes. On the second trial, one of the objects used in the first test was replaced with a different kind of object, and then the mouse was allowed to seek freely for five minutes. In each experiment, when the mouse brought its muffle close to the object within 1-cm apart from the object, or made its muffle or whiskers to contact with the object, the mouse was judged to have a seeking behavior, and the seeking time thereof was measured. The object discrimination index [={(seeking time for novel object)−(seeking time for memorized object)}/{(seeking time of novel object)+(seeking time of memorized object)}] was calculated. The object discrimination index means the ratio of an increased seeking time for novel object to the total seeking time, and the ratio becomes larger when the memory of the once sought object was more strongly held, and it becomes smaller when the memory was more weakly held.

[3] = compound concentration 0.78 μg/ml, read-out: Residual ratio of AchE activity (%)
[4] = compound concentration 1.56 μg/ml, read-out: Residual ratio of AchE activity (%)
[5] = compound concentration 3.13 μg/ml, read-out: Residual ratio of AchE activity (%)
[6] = compound concentration 6.25 μg/ml, read-out: Residual ratio of AchE activity (%)
[7] = compound concentration 12.5 μg/ml, read-out: Residual ratio of AchE activity (%)
[8] = compound concentration 25 μg/ml, read-out: Residual ratio of AchE activity (%)
[9] = concentration of compound 0.78 μg/ml
[10] = concentration of compound 1.56 μg/ml
[11] = concentration of compound 3.13 μg/ml
[12] = concentration of compound 6.25 μg/ml
[13] = concentration of compound 12.5 μg/ml
[14] = concentration of compound 25 μg/ml
[15] = concentration of compound 50 μg/ml
[16] = concentration that suppresses AchE activity by 50%, calculated from residual ratios

## CC[n+]1ccccc1/C=C/c1ccc(N(C)C)cc1 [NK-557]
[1]; [3]
  remaining activity at 0.78 µg/mL: 110 ± 1%
[1]; [4]
  remaining activity at 1.56 µg/mL: 107 ± 2%
[1]; [5]
  remaining activity at 3.13 µg/mL: 97 ± 5%
[1]; [6]
  remaining activity at 6.25 µg/mL: 97 ± 3%
[1]; [7]
  remaining activity at 12.5 µg/mL: 97 ± 4%
[1]; [8]
  remaining activity at 25 µg/mL: 88 ± 9%
[2]
  Object discrimination index: 0.4

## CN(C)c1ccc(/C=C/c2oc3ccccc3[n+]2C)cc1 [NK-528]
[2]
  Object discrimination index: 0.3

## CCN1/C(=C/C=C(/C=C/c2sc3ccccc3[n+]2CC)c2sc3ccccc3[n+]2CC)Sc2ccccc21.[I-].[I-] [NK-100]
[1]; AchE solution from PC12-HS cells, read-out: IC50 (concentration of a compound inhibiting the AchE activity of 50%) (converted)
  IC50: 14.6 µM
[1]; [3]
  remaining activity at 0.78 µg/mL: 77 ± 18%
[1]; [4]
  remaining activity at 1.56 µg/mL: 68 ± 16%
[1]; [5]
  remaining activity at 3.13 µg/mL: 67 ± 3%
[1]; [6]
  remaining activity at 6.25 µg/mL: 60 ± 3%
[1]; [7]
  remaining activity at 12.5 µg/mL: 49 ± 5%
[1]; [8]
  remaining activity at 25 µg/mL: 43 ± 3%
[2]
  Object discrimination index: 0.1

## CCCCCCCCCN1C(C)=CS\C1=C/C=C(\C=C\c1scc(C)[n+]1CCCCCCCCC)c1scc(C)[n+]1CCCCCCCCC.[I-].[I-] [NK-393]
[2]
  Object discrimination index: 0.2

## CCCCN1C=C/C(=C/C=C(/C=C/c2cc[n+](CCCC)c3ccccc23)c2cc[n+](CCCC)c3ccccc23)c2ccccc21 [NK-26]
[1]; concentration of compound 0.78 μg/ml, read-out: Residual ratio of AchE activity (%)
  remaining activity at 0.78 µg/mL: 94 ± 11%
[1]; concentration of compound 1.56 μg/ml, read-out: Residual ratio of AchE activity (%)
  remaining activity at 1.56 µg/mL: 84 ± 9%
[1]; concentration of compound 3.13 μg/ml, read-out: Residual ratio of AchE activity (%)
  remaining activity at 3.13 µg/mL: 88 ± 8%
[1]; concentration of compound 6.25 μg/ml, read-out: Residual ratio of AchE activity (%)
  remaining activity at 6.25 µg/mL: 88 ± 7%
[1]; concentration of compound 12.5 μg/ml, read-out: Residual ratio of AchE activity (%)
  remaining activity at 12.5 µg/mL: 69 ± 5%
[1]; concentration of compound 25 μg/ml, read-out: Residual ratio of AchE activity (%)
  remaining activity at 25 µg/mL: 48 ± 4%
[1]; concentration of compound 50 μg/ml, read-out: Residual ratio of AchE activity (%)
  remaining activity at 50 µg/mL: 36 ± 9%
[1]; concentration that suppresses AchE activity by 50%, calculated from residual ratios, read-out: IC50 (μg/ml) (converted)
  IC50: 37.6 µM
[2]
  Object discrimination index: 0.1

## CCCN1C=CC(=CC=C(C=Cc2cc[n+](CCC)c3ccccc23)c2cc[n+](CCC)c3ccccc23)c2ccccc21.[I-].[I-] [NK-234]
[1]
  action of inhibiting AchE activity (in words): strongly inhibited AchE activity
[1]; [9]
  Residual ratio of AchE activity (%): 77 ± 21%
[1]; [10]
  Residual ratio of AchE activity (%): 77 ± 13%
[1]; [11]
  Residual ratio of AchE activity (%): 47 ± 11 %
[1]; [12]
  Residual ratio of AchE activity (%): 45 ± 9 %
[1]; [13]
  Residual ratio of AchE activity (%): 30 ± 12 %
[1]; [14]
  Residual ratio of AchE activity (%): 26 ± 6 %
[1]; [15]
  Residual ratio of AchE activity (%): 12 ± 6 %
[1]; [16]
  IC50: 3.0 µg/mL

## CCCCCCCN1C=CC(=CC=C(C=Cc2cc[n+](CCCCCCC)c3ccccc23)c2cc[n+](CCCCCCC)c3ccccc23)c2ccccc21.[I-].[I-] [NK-28]
[2]
  Object discrimination index: 0.2

## CCN1C=CC(=CC=C(C=Cc2cc[n+](CC)c3ccccc23)c2cc[n+](CC)c3ccccc23)c2ccccc21.[I-].[I-] [NK-4]
[1]; AchE solution from PC12-HS cells
  IC50 (concentration of a compound inhibiting the AchE activity of 50%): 3.3 µg/mL
[1]
  action of inhibiting AchE activity (in words): strongly inhibited AchE activity
[1]; compound concentration 0.78 μg/ml
  Residual ratio of AchE activity (%): 84 ± 6%
[1]; compound concentration 1.56 μg/ml
  Residual ratio of AchE activity (%): 66 ± 7%
[1]; compound concentration 3.13 μg/ml
  Residual ratio of AchE activity (%): 42 ± 4 %
[1]; compound concentration 6.25 μg/ml
  Residual ratio of AchE activity (%): 37 ± 10 %
[1]; compound concentration 12.5 μg/ml
  Residual ratio of AchE activity (%): 38 ± 2 %
[1]; compound concentration 25 μg/ml
  Residual ratio of AchE activity (%): 30 ± 8 %
[1]; [9]
  Residual ratio of AchE activity (%): 91 ± 4%
[1]; [10]
  Residual ratio of AchE activity (%): 47 ± 4 %
[1]; [11]
  Residual ratio of AchE activity (%): 41 ± 9 %
[1]; [12]
  Residual ratio of AchE activity (%): 38 ± 7 %
[1]; [13]
  Residual ratio of AchE activity (%): 24 ± 2 %
[1]; [14]
  Residual ratio of AchE activity (%): 25 ± 3 %
[1]; [15]
  Residual ratio of AchE activity (%): 22 ± 2 %
[1]; [16]
  IC50: 1.5 µg/mL
[2]
  Object discrimination index: 0.1

## COc1ccc2oc(/C=C/c3ccc(N(C)C)cc3)[n+](C)c2c1 [NK-1516]
[2]
  Object discrimination index: 0.4

## CCCCCCCCN1C=CC(=CC=C(C=Cc2cc[n+](CCCCCCCC)c3ccccc23)c2cc[n+](CCCCCCCC)c3ccccc23)c2ccccc21.[I-].[I-] [NK-147]
[2]
  Object discrimination index: 0.2
